# Results taken from US20080221074A1, “Drug Screen and Treatment Method” (priority 2006, published 2008).
# Columns and labels:
# NF-κB = assay: kinetic analysis of NF-kB inhibition in vivo after LPS; design: species or system mice
# Protocol: Kinetic analysis of NF-kB inhibition in vivo. […] The drug was injected 24 hours before intraperitoneal injection of bacterial LPS (about an LD50/24). The study used two groups of 12 animals, vehicle control or drug administered 24 hours before LPS challenge. Spleens were harvested from 3 animals from both groups just before LPS challenge and at 1.5, 2.0 and 2.5 hours after administration of LPS.
# Maximum NF-κB activation after LPS administration occurred at 1.5 hours in the vehicle controls, which was 4-fold increased over the pre-LPS level of activated NF-κB. The values for the vehicle control and drug treated animals are relative optical density units from ELISA measurement of NF-κB in nuclei from spleen cells.
# osteoprotegerin = osteoprotegerin levels in dexamethasone treated mice; type: in vivo; details: vehicle, dexamethasone and compound at 4 mg/kg/day; p<0.05
# Protocol: Osteoprotegerin levels in mice that were treated with vehicle and dexamethasone at 10 μg/day (positive control group) had 3.3 pMol/L osteoprotegerin, while animals treated with vehicle, dexamethasone and 17α-ethynyl-5-androstene-3β,7β,17β-triol at 4 mg/kg/day had 6.4 pMol/L osteoprotegerin (p<0.05).
# 11β-HSD1 = assay: expression of 11β-HSD1 in osteoblasts of treated mice; details: mouse, in vivo
# [1] = system: collagen induced arthritis; assay: collagen induced arthritis (bCII), Foxp3+ cells and clinical score; type: in vivo, DBA/1Lac/J mice
# Protocol: Increase of CD4^+CD25^+ T regulatory cells or their activity in vivo. The compound 17α-ethynylandrost-5-ene-3β,7β,17β-triol was administered to mice essentially as described in a previously described collagen induced arthritis animal model. H. Offner et al., Clin. Immunol., 110:181-190, 2006.
# DBA/1Lac/J mice were used for the study. The mice were obtained from Jackson Laboratories (Bar Harbor, Harbor, […].) and housed in accordance with applicable institutional guidelines. Bovine type II collagen (bCII) was used to induce collagen induced arthritis (CIA) by immunizing 8-week-old mice with 200 μg of bCII emulsified 1:1 with CFA containing 200 μg Mycobacterium tuberculosis (100 μL; Difco, Detroit, Mich.). The antigen was injected intradermally at the base of the tail. The animals were monitored for 4-7 weeks to observe the onset and progression of the disease post-immunization. The arthritic severity was evaluated with a grading system for each paw according to the following scale: 0=no redness or swelling; 1=slight swelling in ankle or redness in foot; 2=progressed swelling and inflammation and redness from ankle to mid foot; 3=swelling and inflammation of entire foot; 4=swelling and inflammation of entire foot including toes.
# After immunization, the mice were treated with the drug at 40 mg/kg/day in vehicle by oral gavage beginning at the start of observable clinical disease (beginning at about 26-27 days after immunization). The vehicle that was used for the protocol was 30% cyclodextrin-sulfobutylether in water. The cyclodextrin-sulfobutylether was obtained commercially (Captisol™ available at cydexinc.com). The drug formulation was 20 mg drug/mL in the vehicle.
# [2] = system: monocyte chemoattractant protein-1 (MCP-1); assay: MCP-1 RNA in perigonadal fat tissue by quantitative RT/PCR; type: in vivo, db/db mice; details: 20 mg/kg; normalized to vehicle control
# Protocol: In another study, total RNA from perigonadal fat tissue from lean db/+ or diabetic db/db mice treated with 20 mg/kg of 17α-ethynylandrost-5-ene-3β,7β,17β-triol was isolated and processed for quantitative RT/PCR using primers specific for monocyte chemoattractant protein-1 (MCP-1) using an icycler iQ multicolor real time-detection system (Bio-Rad). RNA expression levels were normalized with respect to the vehicle control. […] For this study, vehicle was also administered to a control group of age matched lean heterozygous db/+ mice (n=7).
# [3] = system: passive collagen-induced arthritis; assay: passive collagen induced arthritis (anti-type II collagen antibodies); type: in vivo, DBA/1 mice; details: 40 mg/kg/day oral gavage
# Description: The capacity of formula 1 compounds to affect the course of arthritis in a passive collagen induced arthritis model of arthritis was examined essentially as previously described (E. Simelyte et al., Arthritis & Rheumatism, 52(6):1876-1884, 2005; Z. Han et al. Arthritis & Rheumatism 46(3):818-823, 2002; H. Miyahara et al., Clin. Immunol. Immunopathol., 69(1):69-76 1993). In this protocol, passive collagen-induced arthritis was induced in DBA/1 mice by administering anti-type II collagen antibodies, which induced an immune response against joint tissue in the animals. […] The severity of arthritis was assessed using a semiquantitative clinical scoring system. Groups of 8 animals per group were treated with 17α-ethynylandrost-5-ene-3β,7β,17β-triol at 40 mg/kg/day for 14 days or vehicle for 14 days by oral gavage. The vehicle was 30% cyclodextrin-sulfobutylether in water and the drug solution was vehicle with drug at 20 mg/mL.
# The animals were examined by measuring ankle thickness and arthritis score (4-point/paw) with a higher score indicating a more severe arthritis. The experiment was terminated after about 14 days, and histology and gene expression measurements were performed. […] A semi-quantitative scoring system was used to access synovial inflammation, extraarticular inflammation, erosion and proteogylcan loss. […]
# estrogen receptor-β = estrogen receptor-β (Homo sapiens, UniProt Q92731); assay: interaction with sex hormone receptor; type: binding
# estrogen receptor-α = estrogen receptor-α (Homo sapiens, UniProt P03372); assay: interaction with sex hormone receptor; type: binding
# Sequence of estrogen receptor-α (P03372 whole entry): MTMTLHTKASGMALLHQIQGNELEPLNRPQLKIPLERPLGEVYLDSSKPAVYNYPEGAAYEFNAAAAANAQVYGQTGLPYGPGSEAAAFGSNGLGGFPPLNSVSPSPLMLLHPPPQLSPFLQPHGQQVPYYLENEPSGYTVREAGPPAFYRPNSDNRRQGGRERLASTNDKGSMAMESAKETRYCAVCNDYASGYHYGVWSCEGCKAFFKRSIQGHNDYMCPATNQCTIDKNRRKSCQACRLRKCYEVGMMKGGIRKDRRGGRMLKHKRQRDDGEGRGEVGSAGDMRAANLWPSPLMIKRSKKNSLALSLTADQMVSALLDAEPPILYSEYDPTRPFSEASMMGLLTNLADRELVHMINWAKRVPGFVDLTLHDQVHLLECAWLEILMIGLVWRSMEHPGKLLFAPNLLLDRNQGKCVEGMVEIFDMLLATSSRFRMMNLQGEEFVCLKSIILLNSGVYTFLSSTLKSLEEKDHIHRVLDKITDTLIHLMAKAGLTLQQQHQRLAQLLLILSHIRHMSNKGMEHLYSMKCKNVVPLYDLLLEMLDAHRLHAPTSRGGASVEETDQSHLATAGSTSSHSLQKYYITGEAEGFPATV
# Sequence of estrogen receptor-β (Q92731 whole entry, species assumed): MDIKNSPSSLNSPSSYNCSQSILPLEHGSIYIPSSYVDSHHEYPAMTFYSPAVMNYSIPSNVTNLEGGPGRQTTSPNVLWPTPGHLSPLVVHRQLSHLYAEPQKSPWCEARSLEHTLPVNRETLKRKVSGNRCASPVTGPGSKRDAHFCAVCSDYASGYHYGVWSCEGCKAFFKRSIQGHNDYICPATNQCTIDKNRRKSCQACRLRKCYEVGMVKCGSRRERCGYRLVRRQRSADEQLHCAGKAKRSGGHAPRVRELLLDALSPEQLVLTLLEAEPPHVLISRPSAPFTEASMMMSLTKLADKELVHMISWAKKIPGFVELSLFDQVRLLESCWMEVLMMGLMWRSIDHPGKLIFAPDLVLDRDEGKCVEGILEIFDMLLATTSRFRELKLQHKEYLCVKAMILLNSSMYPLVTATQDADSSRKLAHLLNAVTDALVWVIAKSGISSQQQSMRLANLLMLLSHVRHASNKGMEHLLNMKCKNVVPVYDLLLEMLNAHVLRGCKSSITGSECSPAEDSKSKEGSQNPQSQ
compound,measurement,setting,value
"C#C[C@]1(O)CC[C@H]2[C@@H]3[C@@H](O)C=C4C[C@@H](O)CC[C@]4(C)[C@H]3CC[C@@]21C [17α-ethynylandrost-5-ene-3β,7β,17β-triol]",activated NF-κB in spleen cell nuclei (ELISA),"NF-κB; 0 hours (before LPS), about 40 mg/kg i.p. 24 h before LPS",22 relative optical density units
same,activated NF-κB in spleen cell nuclei (ELISA),NF-κB; 1.5 hours after LPS,2 relative optical density units
same,activated NF-κB in spleen cell nuclei (ELISA),NF-κB; 2.0 hours after LPS,7 relative optical density units
same,activated NF-κB in spleen cell nuclei (ELISA),NF-κB; 2.5 hours after LPS,9 relative optical density units
same,osteoprotegerin,osteoprotegerin,6.4 pmol/L
same,decrease of expression of 11β-HSD1 in osteoblasts,11β-HSD1,about 50%
same,Foxp3^+ CD4^+ cells by cell sorter analysis,[1]; 40 mg/kg/day oral gavage,1.4%
same,maximum mean clinical score,[1]; day 34 after immunization,about 5
same,mean clinical score,[1]; day 49 after immunization,about 3
same,decrease of MCP-1 levels,[2],about 50%
same,maximum clinical score,[3]; day 7,5.1
same,clinical score at day 14,[3]; end of protocol,4.1
same,interaction with estrogen receptor-β,estrogen receptor-β,do not interact
same,interaction with estrogen receptor-α,estrogen receptor-α,do not interact
